Structures can show the parent of a compound that is named as a salt.
Target: monoamine oxidase (MAO)
Test: MAO inhibition in vitro (brain)
Format: biochemical
Conditions: rat brain homogenate, 14C-5-HT or 14C-PEA as substrate (which one not given), pH 7.4, 37° C., 30 min pre-incubation, 10 min incubation
Description: The MAO inhibiting activity of the compounds in accordance with the invention can be determined using standard methods.
The preparations to be tested were investigated in the in vitro test described hereinafter, which was based on the method of R. J. Wurtmann and J. A. Axelrod [Biochem. Pharmac. 12, 1439-41 (1963).
Isolated rat brains are homogenized in 0.1 molar potassium phosphate buffer (pH 7.4) in the ratio 1:9 (weight/volume), whereupon the homogenate is diluted with the same buffer in the ratio 1:4 (volume/volume) and stored at -20° C. A mixture of the following composition is used for the incubation:
100 μl of 1M phosphate buffer (pH 7.4);
100 μl of solubilizate of the substance to be tested in water or in aqueous dimethyl sulfoxide;
50 μl of rat brain homogenate; and as the substrate
50 μl of ^14 C-labelled serotonin (5-HT) or ^14 C-phenylethylamine (PEA), in each instance 100,000 decay per minute, corresponding to a final concentration of 2·10^-4 mol/l and, respectively, 2·10^-5 mol/l.
A pre-incubation at 37° C. is effected for 30 minutes prior to the addition of the substrate. The incubation (in the presence of the substrate) is likewise effected at 37° C. and lasts for 10 minutes. The reaction is stopped by the addition of 200 μl of 2N hydrochloric acid. In order to extract the deaminated product, the mixture is shaken for 10 minutes with 5 ml of diethyl ether or with 5 ml of n-heptane depending on whether 5-HT or PEA is used as the substrate, whereupon the mixture is centrifuged, the aqueous phase is frozen in a dry-ice bath and the organic phase is transferred into a counting glass.
The activity of the MAO in comparison to the control homogenates is determined on the basis of the β-counter values.
Under the above test conditions the activity is linear with respect to time and to the concentration of the homogenizate. The IC50 values were determined graphically as a log of the concentration-activity curve. The IC50 was defined as that concentration of a substance to be tested which reduces the activity of the MAO upon the substrate 5-HT or PEA by 50%.

Structure (SMILES) | IC50
O=C1OC(CO)CN1c1ccc(C2CCCCC2)cc1 (racemic) [Example 1, (RS)-3-(4-Cyclohexyl-phenyl)-5-hydroxymethyl-oxazolidin-2-one] | 8.5 nM
COCC1CN(c2ccc(C3CCCCC3)cc2)C(=O)O1 (racemic) [Example 2, (RS)-3-(4-Cyclohexyl-phenyl)-5-methoxymethyl-oxazolidin-2-one] | 2 nM
COCC1CN(c2ccc(C3CCC(=O)CC3)cc2)C(=O)O1 (racemic) [Example 7, (RS)-3-[4-(4-Oxo-cyclohexyl)-phenyl]-5-methoxymethyl-oxazolidin-2-one] | 10 nM
COCC1CN(c2ccc([C@H]3CC[C@H](O)CC3)cc2)C(=O)O1 (mixture of isomers) [Example 8, (RS)-3-[4(trans-4-Hydroxy-cyclohexyl)-phenyl]-5-methoxymethyl-oxazolidin-2-one] | 8.4 nM
COCC1CN(c2ccc([C@H]3CC[C@H](OCCC#N)CC3)cc2)C(=O)O1 (mixture of isomers) [Example 30, (RS)-3-[trans-4-[4-(5-Methoxymethyl-2-oxo-Oxazolidin-3-yl)-phenyl]cyclohexyloxy]-propionitrile] | 5 nM
COCC1CN(c2ccc([C@H]3CC[C@H](OC(C)=O)CC3)cc2)C(=O)O1 (mixture of isomers) [Example 33, Acetic acid (RS)-trans-4-[4-(5-methoxymethyl-2-oxo-oxazolidin-3-yl)-phenyl]-cyclohexylester] | 10 nM
COCC1CN(c2ccc(C3CCC(CO)CC3)cc2)C(=O)O1 (racemic) [Example 38, (RS)-3-[4-(Cis- and trans-4-Hydroxymethyl-cyclohexyl)-phenyl]-5-methoxymethyl-oxazolidin-2-one] | 3 nM
COCC1CN(c2ccc([C@H]3CC[C@H](CC#N)CC3)cc2)C(=O)O1 (mixture of isomers) [Example 49, (RS)-[trans-4-[4-(5-Methoxymethyl-2-oxo-oxazolidin-3-yl)-phenyl]-cyclohexyl]-acetonitrile] | 0.9 nM
COCC1CN(c2ccc(C3CCN(C(=O)/C=C/c4ccccc4)CC3)cc2)C(=O)O1 (racemic) [Example 59, (RS)-4-[4-(5-Methoxymethyl-2-oxo-oxazolidin-3-yl)-phenyl]-1-(1-oxo-3-phenyl-2,(E)-propenyl)-piperidine] | 10 nM
COCC1CN(c2ccc([C@H]3CC[C@H](OCC#N)CC3)cc2)C(=O)O1 (mixture of isomers) [Example 66, (RS)-[trans-4-[4-(5-Methoxymethyl-2-oxo-oxazolidin-3-yl)-phenyl]-cyclohexyloxy]-acetonitrile] | 2 nM
COC[C@H]1CN(c2ccc(OCC[C@@H](O)C(F)(F)F)cc2)C(=O)O1 [Befloxaton, reference compound] | 1.9 nM
COC[C@H]1CN(c2ccc(C3CCCCC3)cc2)C(=O)O1 [Example 6, (R)-3-(4-Cyclohexyl-phenyl)-5-methoxymethyl-oxazolidin-2-one] | 0.1 nM
COC[C@H]1CN(c2ccc(C3CCC(=O)CC3)cc2)C(=O)O1 [Example 14, (R)-3-[4-(4-Oxo-cyclohexyl)-phenyl]-5-methoxymethyl-oxazolidin-2-one] | 1 nM
COC[C@H]1CN(c2ccc([C@H]3CC[C@H](O)CC3)cc2)C(=O)O1 [Example 15, (R)-3-[4-(trans-4-Hydroxy-cyclohexyl)-phenyl]-5-methoxymethyl-oxazolidin-2-one] | 8.5 nM
COCC1CN(c2ccc([C@H]3CC[C@H](OC)CC3)cc2)C(=O)O1 (stereo partly drawn) [Example 16] | 6 nM
COCC1CN(c2ccc(C3CC4C=CC3C4)cc2)C(=O)O1 (stereo not drawn) [Example 18, 3-[(1RS,2SR,4RS)-4-Bicyclo[2.2.1]hept-5-en-2-yl-phenyl]-5-methoxymethyl-oxazolidin-2-one (R:S=1:1)] | 9 nM
COCC1CN(c2ccc(C3CCC(C)(O)CC3)cc2)C(=O)O1 (stereo not drawn) [Example 39, (RS)-3-[4-(cis or trans-4-Hydroxy-4-methyl-cyclohexyl)-phenyl]-5-methoxymethyl-oxazolidin-2-one] | 4 nM
COC[C@H]1CN(c2ccc([C@H]3CC[C@H](CC#N)CC3)cc2)C(=O)O1 [Example 50] | 1 nM
COC[C@H]1CN(c2ccc([C@H]3CC[C@H](OCC#N)CC3)cc2)C(=O)O1 [Example 63, (R)-[trans-4-[4-(5-Methoxymethyl-2-oxo-oxazolidin-3-yl)-phenyl]-cyclohexyloxy]-acetonitrile] | 1.6 nM
COCC1CN(c2ccc([C@H]3CC[C@H](OCCN)CC3)cc2)C(=O)O1 (stereo partly drawn) [Example 68, (RS)-3-[trans-4-[4-(5-Methoxymethyl-2-oxo-oxazolidin-3-yl)-phenyl]-cyclohexyloxy]ethanamine.HCl] | 74 nM
COC[C@H]1CN(c2ccc([C@H]3CC[C@H](OCCCN)CC3)cc2)C(=O)O1 [Example 71, (R)-3-[trans-4-(3-Amino-propoxy)-cyclohexyl]-phenyl]-5-methoxymethyl-oxazolidin-2-one hydrochloride] | 33 nM

Source: US5574055A, “Oxazolidinone derivatives” (Hoffmann-La Roche Inc., priority 1993, dated 1996)
